# Assay results: patent publication US20200172966A1 (YAMAGUCHI UNIVERSITY, priority 2015, published 2020)
# Assay: incidence of side effect (hematologic toxicity) by single nucleotide polymorphism genotype in Japanese patients with colon cancer who had received irinotecan
# Assay type: in vivo, human
# Experimental: By using TaqMan SNP Assays Human (manufactured by Applied Biosystems, Inc.) and LightCycler (R) 480 Probe Master (manufactured by Roche Diagnostics, Inc.), Universal ProbeLibrary (manufactured by Roche Diagnostics, Inc.), and LightCycler 480 System II (manufactured by Roche Diagnostics, Inc.), 10 ng of genomic DNA was subjected to genotyping. After incubation at 95° C. for 10 min, the sample was subjected to PCR amplification with 55 cycles for rs1980576, rs2272761, and rs9425343, 45 cycles for rs12577167, rs7265854, and rs1135640, or 40 cycles for rs1547 (1 cycle consisted of 92° C. for 15 sec and 60° C. for 60 sec). The fluorescence emitted from the PCR products were measured.
# The “Odds ratio” in Table 3 refers to an odds ratio indicating the occurrence of a side effect as calculated using a Fisher's exact test on a single nucleotide polymorphism being homozygous for a wild-type or homozygous for a variant type.
# The term (P value/C.-A.) in Table 4 is the same as in Table 2. […] The term “Odds ratio” in Table 5 is the same as in Table 3.
# [1] = N = 67, homozygous UGT1A1*28, homozygous *6, compound heterozygous excluded (Table 2), ACOX1 rs1135640 C/C
# [2] = N = 67, homozygous UGT1A1*28, homozygous *6, compound heterozygous excluded (Table 2), ACOX1 rs1135640 C/G
# [3] = N = 67, homozygous UGT1A1*28, homozygous *6, compound heterozygous excluded (Table 2), ACOX1 rs1135640 G/G
# [4] = N = 67, homozygous UGT1A1*28, homozygous *6, compound heterozygous excluded (Table 3), ACOX1 rs1135640 G/G
# [5] = N = 67, homozygous UGT1A1*28, homozygous *6, compound heterozygous excluded, ACOX1 rs1135640 C/C, C/G
# [6] = N = 67, homozygous UGT1A1*28, homozygous *6, compound heterozygous excluded, APCDD1L rs1980576 A/A
# [7] = N = 67, homozygous UGT1A1*28, homozygous *6, compound heterozygous excluded, APCDD1L rs1980576 A/A, A/G
# [8] = N = 67, homozygous UGT1A1*28, homozygous *6, compound heterozygous excluded, APCDD1L rs1980576 A/G, G/G
# [9] = N = 67, homozygous UGT1A1*28, homozygous *6, compound heterozygous excluded, APCDD1L rs1980576 G/G
# [10] = N = 67, homozygous UGT1A1*28, homozygous *6, compound heterozygous excluded, APCDD1L rs7265854 C/C
# [11] = N = 67, homozygous UGT1A1*28, homozygous *6, compound heterozygous excluded, APCDD1L rs7265854 T/T, T/C
# [12] = N = 67, homozygous UGT1A1*28, homozygous *6, compound heterozygous excluded, EDEM3 rs9425343 T/G, G/G
# [13] = N = 67, homozygous UGT1A1*28, homozygous *6, compound heterozygous excluded, EDEM3 rs9425343 T/T
# [14] = N = 67, homozygous UGT1A1*28, homozygous *6, compound heterozygous excluded, R3HCC1 rs2272761 G/A, A/A
# [15] = N = 68, homozygous UGT1A1*28, homozygous *6, compound heterozygous excluded, APCDD1L rs1980576 A/A
# [16] = N = 68, homozygous UGT1A1*28, homozygous *6, compound heterozygous excluded, APCDD1L rs1980576 A/G
# [17] = N = 68, homozygous UGT1A1*28, homozygous *6, compound heterozygous excluded, APCDD1L rs1980576 G/G
# [18] = N = 68, homozygous UGT1A1*28, homozygous *6, compound heterozygous excluded, APCDD1L rs7268854 A/A
# [19] = N = 68, homozygous UGT1A1*28, homozygous *6, compound heterozygous excluded, APCDD1L rs7268854 A/G
# [20] = N = 68, homozygous UGT1A1*28, homozygous *6, compound heterozygous excluded, APCDD1L rs7268854 G/G
# [21] = N = 68, homozygous UGT1A1*28, homozygous *6, compound heterozygous excluded, CSMD2 rs474474 A/A
# [22] = N = 68, homozygous UGT1A1*28, homozygous *6, compound heterozygous excluded, CSMD2 rs474474 A/G
# [23] = N = 68, homozygous UGT1A1*28, homozygous *6, compound heterozygous excluded, CSMD2 rs474474 G/G
# [24] = N = 68, homozygous UGT1A1*28, homozygous *6, compound heterozygous excluded, EDEM3 rs9425343 G/G
# [25] = N = 68, homozygous UGT1A1*28, homozygous *6, compound heterozygous excluded, EDEM3 rs9425343 T/G
# [26] = N = 68, homozygous UGT1A1*28, homozygous *6, compound heterozygous excluded, EDEM3 rs9425343 T/T
# [27] = N = 68, homozygous UGT1A1*28, homozygous *6, compound heterozygous excluded, GATA2 rs2335052 A/A
# [28] = N = 68, homozygous UGT1A1*28, homozygous *6, compound heterozygous excluded, GATA2 rs2335052 G/A
# [29] = N = 68, homozygous UGT1A1*28, homozygous *6, compound heterozygous excluded, GATA2 rs2335052 G/G
# [30] = N = 68, homozygous UGT1A1*28, homozygous *6, compound heterozygous excluded, MKKS rs1547 C/C
# [31] = N = 68, homozygous UGT1A1*28, homozygous *6, compound heterozygous excluded, MKKS rs1547 C/T
# [32] = N = 68, homozygous UGT1A1*28, homozygous *6, compound heterozygous excluded, MKKS rs1547 T/T
# [33] = N = 68, homozygous UGT1A1*28, homozygous *6, compound heterozygous excluded, OR5112 rs12577167 A/A
# [34] = N = 68, homozygous UGT1A1*28, homozygous *6, compound heterozygous excluded, OR5112 rs12577167 A/G
# [35] = N = 68, homozygous UGT1A1*28, homozygous *6, compound heterozygous excluded, OR5112 rs12577167 G/G
# [36] = N = 68, homozygous UGT1A1*28, homozygous *6, compound heterozygous excluded, R3HCC1 rs2272761 A/A
# [37] = N = 68, homozygous UGT1A1*28, homozygous *6, compound heterozygous excluded, R3HCC1 rs2272761 G/A
# [38] = N = 68, homozygous UGT1A1*28, homozygous *6, compound heterozygous excluded, R3HCC1 rs2272761 G/G
smiles,measurement,setting,value
"CCc1c2c(nc3ccc(OC(=O)N4CCC(N5CCCCC5)CC4)cc13)-c1cc3c(c(=O)n1C2)COC(=O)[C@]3(O)CC [irinotecan, 1,4′-Bipiperidine-1′-carboxylic acid (S)-4,11-diethyl-3,4,12,14-tetrahydro-4-hydroxy-3,14-dioxo-1H-pyrano[3′,4′:6,7]indolizino[1,2-b]quinolin-9-yl ester]",irinotecan side effect observed,68 cases considered to have a low risk of a side effect in view of the UGT1A gene polymorphisms,42.6%
same,Toxicity No,[1],3
same,Toxicity Yes,[1],6
same,Toxicity No,[2],14
same,Toxicity Yes,[2],15
same,Toxicity No,[3],21
same,Toxicity Yes,[3],8
same,Toxicity No,[4],21
same,Toxicity Yes,[4],8
same,Toxicity No,[5],17
same,Toxicity Yes,[5],21
same,Toxicity No,[6],16
same,Toxicity Yes,[6],5
same,Toxicity No,[7],35
same,Toxicity Yes,[7],21
same,Toxicity No,[8],22
same,Toxicity Yes,[8],24
same,Toxicity No,[9],3
same,Toxicity Yes,[9],8
same,Toxicity No,[10],8
same,Toxicity Yes,[10],1
same,Toxicity No,[11],30
same,Toxicity Yes,[11],28
same,Toxicity No,[12],31
same,Toxicity Yes,[12],17
same,Toxicity No,[13],7
same,Toxicity Yes,[13],12
same,Toxicity No,[14],32
same,Toxicity Yes,[14],29
same,Toxicity No,"N = 67, homozygous UGT1A1*28, homozygous *6, compound heterozygous excluded, R3HCC1 rs2272761 G/G",6
same,Toxicity No,[15],16
same,Toxicity Yes,[15],5
same,Toxicity No,[16],20
same,Toxicity Yes,[16],16
same,Toxicity No,[17],3
same,Toxicity Yes,[17],8
same,Toxicity No,[18],13
same,Toxicity Yes,[18],13
same,Toxicity No,[19],18
same,Toxicity Yes,[19],15
same,Toxicity No,[20],8
same,Toxicity Yes,[20],1
same,Toxicity No,[21],16
same,Toxicity Yes,[21],17
same,Toxicity No,[22],18
same,Toxicity Yes,[22],8
same,Toxicity No,[23],5
same,Toxicity Yes,[23],4
same,Toxicity No,[24],10
same,Toxicity Yes,[24],3
same,Toxicity No,[25],21
same,Toxicity Yes,[25],14
same,Toxicity No,[26],8
same,Toxicity Yes,[26],12
same,Toxicity No,[27],5
same,Toxicity Yes,[27],3
same,Toxicity No,[28],20
same,Toxicity Yes,[28],10
same,Toxicity No,[29],14
same,Toxicity Yes,[29],16
same,Toxicity No,[30],20
same,Toxicity Yes,[30],8
same,Toxicity No,[31],16
same,Toxicity Yes,[31],16
same,Toxicity No,[32],3
same,Toxicity Yes,[32],5
same,Toxicity No,[33],19
same,Toxicity Yes,[33],20
same,Toxicity No,[34],14
same,Toxicity Yes,[34],8
same,Toxicity No,[35],6
same,Toxicity Yes,[35],1
same,Toxicity No,[36],22
same,Toxicity Yes,[36],21
same,Toxicity No,[37],11
same,Toxicity Yes,[37],8
same,Toxicity No,[38],6
same,Toxicity Yes,[38],0
